Reference: patent publication US12630530B2, “FGFR inhibitor compound and use thereof” (HENAN MEDINNO PHARMACEUTICAL TECHNOLOGY CO., LTD., priority 2020, dated 2026)

How the values were obtained:
Format in all cases: biochemical
Conditions in all cases: Table 3; same method as Assay I, different experimental operator
FGFR2 V564F = target: T1, FGFR2 V564F (Homo sapiens, UniProt P21802, V564F); test: Assay III: inhibitory activity against FGFR mutants (method of Assay I, different operator)
T1 construct: purchased Signalchem F05-12FG
T1 sequence (P21802 22-821 V564F): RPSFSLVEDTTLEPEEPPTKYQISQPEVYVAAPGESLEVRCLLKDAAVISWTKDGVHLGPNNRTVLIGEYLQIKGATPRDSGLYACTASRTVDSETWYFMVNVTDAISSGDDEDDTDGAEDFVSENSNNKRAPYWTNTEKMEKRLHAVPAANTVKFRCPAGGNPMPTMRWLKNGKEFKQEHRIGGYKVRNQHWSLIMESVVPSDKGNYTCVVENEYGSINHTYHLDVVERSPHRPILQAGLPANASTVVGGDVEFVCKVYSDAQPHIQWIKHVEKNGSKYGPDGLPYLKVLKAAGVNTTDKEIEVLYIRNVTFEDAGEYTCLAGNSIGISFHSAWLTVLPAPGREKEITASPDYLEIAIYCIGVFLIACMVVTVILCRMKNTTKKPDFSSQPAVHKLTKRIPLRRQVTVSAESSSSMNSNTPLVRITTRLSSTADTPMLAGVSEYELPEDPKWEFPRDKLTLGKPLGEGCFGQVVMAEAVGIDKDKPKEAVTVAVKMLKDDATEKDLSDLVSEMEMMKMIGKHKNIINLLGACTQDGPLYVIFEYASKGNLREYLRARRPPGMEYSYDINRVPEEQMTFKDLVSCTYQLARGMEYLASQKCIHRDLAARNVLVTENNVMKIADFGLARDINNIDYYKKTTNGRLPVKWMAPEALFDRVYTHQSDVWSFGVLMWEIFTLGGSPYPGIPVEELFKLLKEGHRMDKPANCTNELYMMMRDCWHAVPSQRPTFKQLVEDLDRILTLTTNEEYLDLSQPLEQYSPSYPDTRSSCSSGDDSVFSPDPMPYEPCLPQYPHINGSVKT
Protocol: (§1) 1×Kinase reaction buffer was formulated with 1×volume of 5× kinase reaction buffer and 4×volume of water; 5 mM MgCl2; and 1 mM DTT.
(§2) 2.3 Screening of Compounds: • 1. Diluting a compound 4-fold in a dilution plate with DMSO, with a starting compound concentration of 2 mM (4 mM for Nentedanib). • 2. Diluting the compound 40-fold into 1× kinase reaction buffer and shaking it on a shaker for 20 minutes. • 3. […] Adding 1 μl of the compound diluted in buffer to each well, sealing the plate with a sealing membrane and centrifuging the plate at 1000 g for 30 seconds and leaving it at room temperature for 10 minutes. • 6. Formulating 2.5×TK-substrate-biotin and ATP mixture with 1× enzyme reaction buffer and adding 2 μl of K-substrate-biotin/ATP mixture to the reaction plate. • 7. Sealing the plate with a sealing membrane and centrifuging the plate at 1000 g for 30 seconds and allowing it to react at room temperature for 50 minutes. • 8. Formulating 4×Sa-XL 665 (250 nM) with HTRF assay buffer. • 9. Adding 5 μl Sa-XL 665 and 5 μl TK-Antibody-Cryptate to each well, centrifuging it at 1000 g for 30 seconds, and allowing it to react for 1 hour at room temperature. • 10. Reading fluorescence signals at 615 nm (Cryptate) and 665 nm (XL665) with Biotek. 3. Data Analysis
(§3) 3.1 Calculation of the ratio for each well: the ratio was calculated as 665/615 nm.
(§4) 3.3 Calculation of IC50 and plotting of inhibition curves for the compounds.
(§5) The IC50 (half inhibition concentration) of a compound was obtained using the following non-linear fitting equation, wherein data analysis was performed using Graphpad 6.0 software.
(§6) Data were exported from Envision and analyzed manually. The ratios were converted to inhibition rates and IC50 was calculated by Prism GraphPad 6.0 from the inhibition rates. IC50 was calculated again by the ratios to verify accuracy of the results.
(§7) Assay III: Determination of Inhibitory Activity Against FGFR Mutants

FGFR3 V555M = target: T2, FGFR3 V555M (Homo sapiens, UniProt P22607, V555M); test: as above
T2 construct: purchased Signalchem F06-12GG
T2 sequence (P22607 23-806 V555M): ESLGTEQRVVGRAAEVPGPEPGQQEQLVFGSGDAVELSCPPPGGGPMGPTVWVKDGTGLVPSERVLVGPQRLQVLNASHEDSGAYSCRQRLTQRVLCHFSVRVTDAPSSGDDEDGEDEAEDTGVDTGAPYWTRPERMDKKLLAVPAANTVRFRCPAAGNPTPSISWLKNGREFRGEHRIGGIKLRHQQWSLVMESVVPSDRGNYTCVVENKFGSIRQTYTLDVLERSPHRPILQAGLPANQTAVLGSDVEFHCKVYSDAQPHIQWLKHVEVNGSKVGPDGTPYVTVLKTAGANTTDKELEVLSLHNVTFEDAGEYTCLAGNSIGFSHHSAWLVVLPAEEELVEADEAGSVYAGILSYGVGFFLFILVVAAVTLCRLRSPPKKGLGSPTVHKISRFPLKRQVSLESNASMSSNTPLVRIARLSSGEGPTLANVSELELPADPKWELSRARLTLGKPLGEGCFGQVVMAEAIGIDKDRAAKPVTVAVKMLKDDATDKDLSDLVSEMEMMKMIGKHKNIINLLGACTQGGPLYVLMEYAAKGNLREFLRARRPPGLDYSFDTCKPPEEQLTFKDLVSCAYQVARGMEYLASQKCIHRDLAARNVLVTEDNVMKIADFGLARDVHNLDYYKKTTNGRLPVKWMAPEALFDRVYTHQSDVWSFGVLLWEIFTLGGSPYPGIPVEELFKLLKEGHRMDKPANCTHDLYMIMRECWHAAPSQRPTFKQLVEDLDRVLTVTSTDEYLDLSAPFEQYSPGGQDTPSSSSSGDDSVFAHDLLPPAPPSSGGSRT
Protocol: as §1, §2, §3, §4, §5, §6, §7

FGFR1 V561M = target: T3, FGFR1 V561M (Homo sapiens, UniProt P11362, V561M); test: as above
T3 construct: purchased Signalchem F04-13G
T3 sequence (P11362 22-822 V561M): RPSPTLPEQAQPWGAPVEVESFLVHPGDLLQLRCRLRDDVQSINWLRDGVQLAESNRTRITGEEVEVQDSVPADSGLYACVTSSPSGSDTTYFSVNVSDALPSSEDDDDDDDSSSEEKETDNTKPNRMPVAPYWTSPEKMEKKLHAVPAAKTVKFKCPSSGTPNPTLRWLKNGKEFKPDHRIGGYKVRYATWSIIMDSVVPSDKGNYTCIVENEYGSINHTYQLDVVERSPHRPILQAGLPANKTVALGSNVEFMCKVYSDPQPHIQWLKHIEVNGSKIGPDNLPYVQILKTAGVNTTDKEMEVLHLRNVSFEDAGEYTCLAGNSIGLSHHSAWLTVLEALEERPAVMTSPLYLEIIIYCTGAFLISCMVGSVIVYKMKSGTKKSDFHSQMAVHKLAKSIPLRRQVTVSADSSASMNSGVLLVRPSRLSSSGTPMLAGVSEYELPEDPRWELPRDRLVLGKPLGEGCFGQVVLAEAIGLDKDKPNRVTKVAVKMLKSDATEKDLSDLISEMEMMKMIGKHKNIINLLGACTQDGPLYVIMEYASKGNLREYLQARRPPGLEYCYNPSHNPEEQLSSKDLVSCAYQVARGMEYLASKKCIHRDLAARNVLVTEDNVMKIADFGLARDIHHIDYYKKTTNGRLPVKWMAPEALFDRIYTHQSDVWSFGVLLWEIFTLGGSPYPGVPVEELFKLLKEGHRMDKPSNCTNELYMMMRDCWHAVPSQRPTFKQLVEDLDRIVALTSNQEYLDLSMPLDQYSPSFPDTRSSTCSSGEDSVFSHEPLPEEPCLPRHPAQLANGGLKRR
Protocol: as §1, §2, §3, §4, §5, §6, §7

VEGFR2 = target: T4, VEGFR2 (Homo sapiens, UniProt P35968); test: Assay III: kinase inhibition (method of Assay I, different operator), VEGFR2
T4 construct: purchased Carna 08-191
T4 sequence (P35968 20-1356): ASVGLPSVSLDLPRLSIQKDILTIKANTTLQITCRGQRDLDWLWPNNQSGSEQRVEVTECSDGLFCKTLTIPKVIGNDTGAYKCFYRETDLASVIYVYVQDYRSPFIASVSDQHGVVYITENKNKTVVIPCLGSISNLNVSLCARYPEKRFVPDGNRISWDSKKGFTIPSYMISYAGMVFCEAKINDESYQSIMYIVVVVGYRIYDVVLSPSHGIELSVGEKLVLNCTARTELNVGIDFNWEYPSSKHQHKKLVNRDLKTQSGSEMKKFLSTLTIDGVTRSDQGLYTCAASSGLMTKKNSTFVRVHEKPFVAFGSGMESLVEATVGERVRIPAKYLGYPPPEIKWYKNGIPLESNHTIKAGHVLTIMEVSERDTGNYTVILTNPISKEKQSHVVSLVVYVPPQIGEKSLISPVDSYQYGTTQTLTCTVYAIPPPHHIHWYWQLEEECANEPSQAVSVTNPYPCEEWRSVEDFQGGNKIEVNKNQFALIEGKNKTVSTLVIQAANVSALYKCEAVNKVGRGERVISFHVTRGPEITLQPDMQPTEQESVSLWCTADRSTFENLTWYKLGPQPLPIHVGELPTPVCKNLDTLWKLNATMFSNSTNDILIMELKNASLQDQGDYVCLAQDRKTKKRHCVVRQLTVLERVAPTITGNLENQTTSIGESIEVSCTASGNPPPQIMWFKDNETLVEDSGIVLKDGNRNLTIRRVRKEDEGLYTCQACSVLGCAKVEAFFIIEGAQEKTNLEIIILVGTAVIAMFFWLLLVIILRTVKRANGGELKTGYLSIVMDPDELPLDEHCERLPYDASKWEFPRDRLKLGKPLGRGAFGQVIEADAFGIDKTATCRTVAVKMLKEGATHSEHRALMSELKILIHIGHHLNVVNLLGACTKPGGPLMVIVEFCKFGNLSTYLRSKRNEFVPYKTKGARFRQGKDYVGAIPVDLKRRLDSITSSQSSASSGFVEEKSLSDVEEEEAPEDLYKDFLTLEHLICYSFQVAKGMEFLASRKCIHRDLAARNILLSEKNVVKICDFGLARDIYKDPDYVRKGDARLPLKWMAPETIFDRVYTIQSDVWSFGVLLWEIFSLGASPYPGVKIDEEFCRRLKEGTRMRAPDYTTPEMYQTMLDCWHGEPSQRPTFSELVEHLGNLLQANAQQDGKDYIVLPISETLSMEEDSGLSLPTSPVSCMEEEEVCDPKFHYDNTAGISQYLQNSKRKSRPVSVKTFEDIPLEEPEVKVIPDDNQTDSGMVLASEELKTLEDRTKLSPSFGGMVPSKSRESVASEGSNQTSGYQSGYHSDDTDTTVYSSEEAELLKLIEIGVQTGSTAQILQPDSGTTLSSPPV
Protocol: as §1
2.3 Screening of Compounds: • 1. Diluting a compound 4-fold in a dilution plate with DMSO, with a starting compound concentration of 2 mM (4 mM for Nentedanib). • 2. Diluting the compound 40-fold into 1× kinase reaction buffer and shaking it on a shaker for 20 minutes. • 3. Formulating 2×FGFR1 V561M/FGFR2 V564F/FGFR3 K650E/VEGFR2 with 1× of enzyme reaction buffer. • 4. Adding 2 μl FGFR1 V561M/FGFR2 V564F/FGFR3 K650E/VEGFR2 kinase (formulated in step 3) to each well of the reaction plate. • 5. Adding 1 μl of the compound diluted in buffer to each well, sealing the plate with a sealing membrane and centrifuging the plate at 1000 g for 30 seconds and leaving it at room temperature for 10 minutes. • 6. Formulating 2.5×TK-substrate-biotin and ATP mixture with 1× enzyme reaction buffer and adding 2 μl of K-substrate-biotin/ATP mixture to the reaction plate. • 7. Sealing the plate with a sealing membrane and centrifuging the plate at 1000 g for 30 seconds and allowing it to react at room temperature for 50 minutes. • 8. Formulating 4×Sa-XL 665 (250 nM) with HTRF assay buffer. • 9. Adding 5 μl Sa-XL 665 and 5 μl TK-Antibody-Cryptate to each well, centrifuging it at 1000 g for 30 seconds, and allowing it to react for 1 hour at room temperature. • 10. Reading fluorescence signals at 615 nm (Cryptate) and 665 nm (XL665) with Biotek. 3. Data Analysis
as §3, §4
The IC50 (half inhibition concentration) of a compound was obtained using the following non-linear fitting equation, wherein data analysis was performed using Graphpad 6.0 software. Y=Bottom+(Top−Bottom)/(1+10^((Log IC50−X)*Hill Slope)) • X: log value of compound concentration; and Y: inhibition rate (% inh) 3.4 Validation of Results
as §6, §7

SMILES	IC50 (FGFR2 V564F) [nM]	IC50 (FGFR3 V555M) [nM]	IC50 (FGFR1 V561M) [nM]	IC50 (VEGFR2) [nM]
C[C@@H](Oc1ccc2[nH]nc(C(=O)Nc3cnn(CC4CCCN(C)C4)c3)c2c1)c1c(Cl)cncc1Cl (stereo partly drawn) [Compound 44, 5-((R)-1-(3,5-dichloropyridin-4-yl)ethoxy)-N-(1-((1-methylpiperidin-3-yl)methyl)-1H-pyrazol-4-yl)-1H-indazole-3-carboxamide]	0.39	0.55	1.1	145
C[C@@H](O)Cn1cc(NC(=O)c2n[nH]c3ccc(O[C@H](C)c4c(Cl)cncc4Cl)cc23)cn1 [Compound 33, 5-((R)-1-(3,5-dichloropyridin-4-yl)ethoxy)-N-(1-((R)-2-hydroxypropyl)-1H-pyrazol-4-yl)-1H-indazole-3-carboxamide]	0.33	0.39	1	99
CCC(Oc1ccc2[nH]nc(C(=O)Nc3cnn(C)c3)c2c1)c1c(Cl)cncc1Cl (stereo not shown) [Compound 46, 5-(1-(3,5-dichloropyridin-4-yl)propoxy)-N-(1-methyl-1H-pyrazol-4-yl)-1H-indazole-3-carboxamide]	1	2.1	3.4	184
CCN1CC(Cn2cc(NC(=O)c3n[nH]c4ccc(O[C@H](C)c5c(Cl)cncc5Cl)cc34)cn2)C1 [Compound 39, (R)-5-(1-(3,5-dichloropyridin-4-yl)ethoxy)-N-(1-((1-ethyl-azetidin-3-yl)methyl)-1H-pyrazol-4-yl)-1H-indazole-3-carboxamide]	0.05	0.05	0.35	30
C[C@@H](Oc1ccc2[nH]nc(C(=O)Nc3cnn(CC4CCCCN4C)c3)c2c1)c1c(Cl)cncc1Cl (stereo partly drawn) [Compound 45, 5-((R)-1-(3,5-dichloropyridin-4-yl)ethoxy)-N-(1-((1-methylpiperidin-2-yl)methyl)-1H-pyrazol-4-yl)-1H-indazole-3-carboxamide]	0.1	0.14	0.34	62
CCN1CCC(Cn2cc(NC(=O)c3n[nH]c4ccc(O[C@H](C)c5c(Cl)cncc5Cl)cc34)cn2)CC1 [Compound 40, (R)-5-(1-(3,5-dichloropyridin-4-yl)ethoxy)-N-(1-((1-ethylpiperidin-4-yl)methyl)-1H-pyrazol-4-yl)-1H-indazole-3-carboxamide]	1.3	0.02	0.42	33
CC(Oc1ccc2[nH]nc(C(=O)Nc3ccc(CN4CCOCC4)cc3)c2c1)c1c(Cl)cncc1Cl (stereo not shown) [Compound 30, 5-(1-(3,5-dichloropyridin-4-yl)ethoxy)-N-(4-(morpholinomethyl)phenyl)-1H-indazole-3-carboxamide]	3.7	7.6	36	729
C[C@@H](Oc1ccc2[nH]nc(C(=O)Nc3cnn(Cc4cccnc4)c3)c2c1)c1c(Cl)cncc1Cl [Compound 49, (R)-5-(1-(3,5-dichloropyridin-4-yl)ethoxy)-N-(1-(pyridin-3-ylmethyl)-1H-pyrazol-4-yl)-1H-indazole-3-carboxamide]	0.55	1.4	0.51	110
CC(Oc1ccc2[nH]nc(C(=O)Nc3cnn(CC(F)(F)F)c3)c2c1)c1c(Cl)cncc1Cl (stereo not shown) [Compound 28, 5-(1-(3,5-dichloropyridin-4-yl)ethoxy)-N-(1-(2,2,2-trifluoroethyl)-1H-pyrazol-4-yl)-1H-indazole-3-carboxamide]	2.6	3	11	68
CCN1CCN(c2ccc(Nc3cc(N(C)C(=O)Nc4c(Cl)c(OC)cc(OC)c4Cl)ncn3)cc2)CC1 [Infigratinib, reference compound]				73
C[C@@H](Oc1ccc2[nH]nc(C(=O)Nc3cnn(CCN4CCOCC4)c3)c2c1)c1c(Cl)cncc1Cl [Compound 37, (R)-5-(1-(3,5-dichloropyridin-4-yl)ethoxy)-N-(1-(2-morpholinoethyl)-1H-pyrazol-4-yl)-1H-indazole-3-carboxamide]	0.44	0.16	1.6	79
C[C@H](O)Cn1cc(NC(=O)c2n[nH]c3ccc(O[C@H](C)c4c(Cl)cncc4Cl)cc23)cn1 [Compound 32, 5-((R)-1-(3,5-dichloropyridin-4-yl)ethoxy)-N-(1-((S)-2-hydroxypropyl)-1H-pyrazol-4-yl)-1H-indazole-3-carboxamide]	0.37	0.26	0.3	86

Next, values leading:

IC50 (FGFR2 V564F) [nM]	IC50 (FGFR3 V555M) [nM]	IC50 (FGFR1 V561M) [nM]	IC50 (VEGFR2) [nM]	SMILES
0.15	0.14	0.38	62	C[C@@H](Oc1ccc2[nH]nc(C(=O)Nc3cnn(C4CCN(C)C4)c3)c2c1)c1c(Cl)cncc1Cl (stereo partly drawn) [Compound 43, 5-((R)-1-(3,5-dichloropyridin-4-yl)ethoxy)-N-(1-(1-methylpyrrolidin-3-yl)-1H-pyrazol-4-yl)-1H-indazole-3-carboxamide]
0.18	0.22	0.37	84	C[C@@H](Oc1ccc2[nH]nc(C(=O)Nc3cnn(CC4CCN(C)C4)c3)c2c1)c1c(Cl)cncc1Cl (stereo partly drawn) [Compound 41, 5-((R)-1-(3,5-dichloropyridin-4-yl)ethoxy)-N-(1-((1-methylpyrrolidin-3-yl)methyl)-1H-pyrazol-4-yl)-1H-indazole-3-carboxamide]
2.1	7.3	20	581	CC(Oc1ccc2[nH]nc(C(=O)Nc3cnn(C4CCC4)c3)c2c1)c1c(Cl)cncc1Cl (stereo not shown) [Compound 27, N-(1-cyclobutyl-1H-pyrazol-4-yl)-5-(1-(3,5-dichloropyridin-4-yl)ethoxy)-1H-indazole-3-carboxamide]
0.31	0.82	1	115	C[C@@H](Oc1ccc2[nH]nc(C(=O)Nc3cnn(C4CCC(O)CC4)c3)c2c1)c1c(Cl)cncc1Cl (stereo partly drawn) [Compound 48, (R)-5-(1-(3,5-dichloropyridin-4-yl)ethoxy)-N-(1-(4-hydroxycyclohexyl)-1H-pyrazol-4-yl)-1H-indazole-3-carboxamide]
0.06	0.75	0.24	61	CCn1cc(NC(=O)c2n[nH]c3ccc(O[C@H](C)c4c(Cl)cncc4Cl)cc23)cn1 [Compound 34, (R)-5-(1-(3,5-dichloropyridin-4-yl)ethoxy)-N-(1-ethyl-1H-pyrazol-4-yl)-1H-indazole-3-carboxamide]
0.11	0.07	0.93	54	CCN1CC(n2cc(NC(=O)c3n[nH]c4ccc(O[C@H](C)c5c(Cl)cncc5Cl)cc34)cn2)C1 [Compound 31, (R)-5-(1-(3,5-dichloropyridin-4-yl)ethoxy)-N-(1-(1-ethyl-azetidin-3-yl)-1H-pyrazol-4-yl)-1H-indazole-3-carboxamide]
1.2	2.1	2.3	194	C[C@@H](Oc1ccc2[nH]nc(C(=O)Nc3cnn(C4CCOCC4)c3)c2c1)c1c(Cl)cncc1Cl [Compound 47, (R)-5-(1-(3,5-dichloropyridin-4-yl)ethoxy)-N-(1-(tetrahydro-2H-pyran-4-yl)-1H-pyrazol-4-yl)-1H-indazole-3-carboxamide]
